Patent US9126999B2, “Tetrahydropyrazolopyrimidine compounds” (EISAI R&D MANAGEMENT CO., LTD., priority 2012, dated 2015)
pIC50: −log10 of the molar value. “And” between values parts separate entries of the source, which are not always exact repeats. Equal values may be shown once. Read-outs that look alike come from different tables or passages of the source.

How the values were obtained:
[1] = molecular target: T1, Human TLR8 (Homo sapiens, UniProt Q9NR97); assay: HEK-293 NF-kappaB luciferase reporter assay, CL097 stimulus; assay type: cell-based
T1 construct: host or cells: HEK-293 stably expressing human TLR8, then transfected with pNiFty2(NF-kappaB)-luciferase
T1 sequence (Q9NR97 27-1041): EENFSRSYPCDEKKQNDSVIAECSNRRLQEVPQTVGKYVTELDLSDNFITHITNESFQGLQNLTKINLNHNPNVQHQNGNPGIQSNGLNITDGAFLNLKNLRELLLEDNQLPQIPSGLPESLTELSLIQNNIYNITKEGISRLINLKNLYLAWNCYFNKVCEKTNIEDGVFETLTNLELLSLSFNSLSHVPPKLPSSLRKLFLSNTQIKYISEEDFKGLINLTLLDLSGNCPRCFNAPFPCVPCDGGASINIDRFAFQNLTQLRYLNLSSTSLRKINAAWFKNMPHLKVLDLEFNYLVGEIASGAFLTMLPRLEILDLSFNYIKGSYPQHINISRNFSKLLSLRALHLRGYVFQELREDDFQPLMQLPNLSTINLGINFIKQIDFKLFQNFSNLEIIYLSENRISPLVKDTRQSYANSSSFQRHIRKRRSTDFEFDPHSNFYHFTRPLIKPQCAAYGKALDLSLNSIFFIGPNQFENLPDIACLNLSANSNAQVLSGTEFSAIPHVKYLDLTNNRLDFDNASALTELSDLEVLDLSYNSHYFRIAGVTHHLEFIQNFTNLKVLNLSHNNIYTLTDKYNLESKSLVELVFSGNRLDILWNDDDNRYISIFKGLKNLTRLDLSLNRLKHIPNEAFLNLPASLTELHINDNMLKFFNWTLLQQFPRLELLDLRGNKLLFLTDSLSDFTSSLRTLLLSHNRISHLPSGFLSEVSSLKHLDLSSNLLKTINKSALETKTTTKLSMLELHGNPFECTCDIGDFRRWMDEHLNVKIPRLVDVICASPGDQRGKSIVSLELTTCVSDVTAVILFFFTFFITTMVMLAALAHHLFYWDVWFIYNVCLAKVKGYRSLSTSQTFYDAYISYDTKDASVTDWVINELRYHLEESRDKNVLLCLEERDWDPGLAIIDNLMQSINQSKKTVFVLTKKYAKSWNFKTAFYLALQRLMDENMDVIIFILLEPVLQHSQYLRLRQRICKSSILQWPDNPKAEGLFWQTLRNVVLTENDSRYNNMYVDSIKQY
Description: In vitro pharmacology: HEK-293 cells (ATCC) were engineered to stably express a NF-kappaB transcription factor inducible E-selectin (ELAM-1) luciferase reporter derived from the plasmid pGL3 (Promega) containing base pairs −2241 bp to −254 bp from the promoter of the human E-selectin gene (Accession No. NM_000450). These cells were then subsequently engineered to stably and individually express human TLR4, TLR7 or TLR9 full-length ORF cDNAs. Human TLR4 cDNA (Accession No. NM_138554) was cloned into pcDNA 3.0 expression vector (Invitrogen). TLR4 transfected cells were also engineered to express human MD-2 co-receptor [MD-2 cDNA (Accession No. NM_015364) was cloned into the pEF-BOS vector] and were supplemented with 10 nM soluble CD14 (R&D Systems) in the media to optimize LPS responsiveness. Human TLR9 cDNA (Accession No. NM_017442) was cloned into the pBluescript II KS vector (Agilent). Human TLR7 cDNA (Accession No. NM_016562) was obtained from OriGene. HEK-293 cells stably expressing human TLR8 (Accession No. NM_138636) or mouse TLR7 (Accession No. NM_133211) were purchased from InvivoGen and were then stably transfected with pNiFty2(NF-kappaB)-luciferase reporter plasmid (InvivoGen). Each cell type was plated in Dulbecco's modified Eagle's medium (DMEM) containing 10% fetal bovine serum (FBS) at a density of 2.22×10^5 cells/ml into a 384-well plate and incubated for 2 days at 37° C., 5% CO2. Varying concentrations of antagonist compounds were then added. Cells were then incubated for another 30 minutes before adding the appropriate TLR agonist as follows (final concentrations indicated): lipopolysaccharide (LPS; Sigma) at 10 ng/ml for TLR4, CL097 (InvivoGen) at 3 ug/ml for human TLR7 and TLR8 and mouse TLR7, and CpG-2006-2A [sequence: […] (SEQ ID NO: 1) with phosphorothioate backbone, synthesized by Sigma-Aldrich] at 0.6 uM for TLR9.

[2] = system: T2, Human TLR7/8; assay: Human PBMC cell-based assay, RNA-Ig (SL4-Ig) stimulus, cytokine ELISA
T2 construct: IC50; other: Hu PBMC; ligand RNA-Ig; analyte IL-6; analyte TNFα; ligand R848; IC50 against the RNA-Ig TLR7/8 stimulus; cytokine responses to RNA-Ig complexes in vitro; potency against the RNA-Ig TLR7/8 stimulus versus HCQ
Method: Briefly, 25 ml blood was diluted with 15 ml PBS (without Ca^2+, Mg^2+) in a 50 ml conical tube, and 12 ml Histopaque was underlaid using a spinal needle. Tubes were centrifuged for 45 minutes at 1200 rpm (350×g), and PBMC were collected from the buffy coat. Cells were then washed twice in PBS, and red blood cells were lysed by suspension in 5 ml ammonium chloride solution (1× Red Blood Cell Lysis Buffer, eBioscience) for 5 minutes at room temperature.
Antagonist compounds solubilized and serial diluted in 100% DMSO were added in triplicate to cells to yield a final concentration of 0.1% DMSO (v/v). Hydroxychloroquine (Acros Organics) solubilized and serial diluted in PBS was added in triplicate to cells. […] The resulting “RNA-Ig” stimulus was incubated at room temperature for 15-30 minutes before adding to cells. PBMC were incubated with the various TLR agonists for 20 hours at 37° C., 5% CO2. Cell culture supernatants were collected, and levels of various human cytokines were assessed as indicated by standard ELISA procedure according to the manufacturer's recommended protocol (BD Biosciences, Inc., San Diego, Calif.).

[3] = human TLR8 in the HEK-293 assay format, read-out: HEK/TLR8 IC50
[4] = Human PBMC IL-6 Inhibition (SL4-Ig Ligand), read-out: Human PBMC IC50

Row | Structure (SMILES) | pIC50 [1, 3] | pIC50 [2, 4] | pIC50 ([1]; HEK-293, ligand CL097, analyte NFkB-luciferase, read-out: IC50) | cytokine responses to RNA-Ig complexes in vitro [2] | pIC50 ([2]; Hu PBMC, ligand RNA-Ig, analyte TNFα, read-out: IC50) | potency against the RNA-Ig TLR7/8 stimulus versus HCQ ([2]; ratio of IC50 values, more potent than HCQ) | pIC50 ([2]; read-out: IC50 against the RNA-Ig TLR7/8 stimulus)
1 | COc1ccc([C@@H]2C[C@H](C(F)(F)F)n3nc(-c4ccncc4)cc3N2)cc1OC [ER-885454] | 6.55 | 6.17 |  |  |  |  | 
2 | COc1ccc([C@@H]2C[C@H](C(F)(F)F)n3nc(-c4ccc(C(=O)N5CCNCC5)cc4)cc3N2)cc1OC [ER-892887, (4-((5S,7R)-5-(3,4-dimethoxyphenyl)-7-(trifluoromethyl)-4,5,6,7-tetrahydropyrazolo[1,5-a]pyrimidin-2-yl)phenyl)(piperazin-1-yl)methanone] |  | 7.40 and 7.29 | 7.10 | blocks | 7.89 | approximately 100 fold | 7.82
3 | Cc1nn(C)cc1[C@@H]1C[C@H](C(F)(F)F)n2nc(-c3ccc(NC(N)=O)cc3)cc2N1 [ER-894595] | 6.49 | 5.67 |  |  |  |  | 
4 | Cc1nn(C)cc1[C@H]1C[C@@H](C(F)(F)F)n2nc(-c3ccc(NC(N)=O)cc3)cc2N1 [ER-894596] | 6.27 | 5.76 |  |  |  |  | 
